Experimental data as given in ChEMBL document CHEMBL3507680, “University of Dundee, Gates Library screen for HepG2 cell viability”.

Test: Human HepG2 cell viability assay in 384 well format
Format: toxicity, cell-based
Set-up: dose 125 nL, time 70.5 hour; concentration not given beside the values
Details: HepG2 cells, read-out: Inhibition

| SMILES | cytotoxicity at 70.5 h [%] |
| --- | --- |
| CC1COCCN1C(=O)NCCCn1ccnc1 (configuration not stated) | -2.86 |
| COc1ccc(CC(=O)N2CCCCC2Cn2cccn2)cc1OC (configuration not stated) | -2.2 |
| COc1ccc(C(C)Nc2ncc(C(N)=O)cc2Cl)cc1OC (configuration not stated) | -10.8 |
| Cc1cc(NC(=O)Nc2ccc3c(ccn3CCN(C)C)c2)n(C)n1 | 2.58 |
| Cn1cnc2c1C(COCc1ccccc1)N(Cc1cccnc1)CC2 (configuration not stated) | -0.0183 |
| CCOc1cc(C(=O)N2CCCC(c3noc(CC)n3)C2)ccn1 (configuration not stated) | -2.83 |
| CCC[C@H]1CN(CCS(C)(=O)=O)C[C@@H]1NC(=O)c1ccn(C)n1 | -4.29 |
| Cc1noc(C)c1CN1CC2(CCN(C(=O)c3ccc[nH]3)C2)CC1=O (configuration not stated) | -6.16 |
| O=C([C@H]1CC[C@@H]2[C@@H](CCN2Cc2ccsc2)O1)N1CCOCC1 | -6.53 |
| CC(C)c1cnc(CN(C)C2CCN(CCS(C)(=O)=O)C2)o1 (configuration not stated) | 2.71 |
| CSc1cccc(CN2CCn3nc(CNC(C)=O)cc3C2)c1 | 5.2 |
| O=C(CC1CCCC1)NCCn1ccc(-c2ccncc2)n1 | 9.19 |
| CN(C)C(=O)C1CN(Cc2ccc(C#N)cc2F)c2ccccc2O1 (configuration not stated) | -0.947 |
| CCN(C)c1ncnc2c1CCN(C(=O)c1ccsc1)CC2 | -0.977 |
| CC(C)C(=O)N1CCCC(c2ncncc2-c2ccncc2)C1 (configuration not stated) | 13.6 |
| Cc1cnn(C2CCCN(C(=O)c3cc(C)sc3C)C2)c1 (configuration not stated) | -2.62 |
| COCCN1C(=O)C[C@@H]2[C@H]1CCN2C(=O)COc1ccccc1 | -20.9 |
| c1ccc(C2(CNCc3cnc(N4CCOCC4)nc3)CC2)cc1 | -8.71 |
| COc1ccc(C(C)NC(=O)Nc2nnc(C)s2)cc1OC (configuration not stated) | 2.44 |
| Cc1ncncc1C(=O)N1C[C@H]2CC[C@@H]1CN(C(=O)c1ccncc1)C2 | -0.209 |
| Cc1cc(C)c2c(C(=O)N(C)C)cc(-c3cnc(N)nc3)nc2c1 | -5.25 |
| COCCn1ccnc1C1CCCN(C(=O)c2ccccc2C#N)C1 (configuration not stated) | 0.955 |
| CC(C)(C)n1cc(C2=CCN(CCc3ccccn3)CC2)cn1 | -5.94 |

| SMILES | cytotoxicity at 70.5 h [%] |
| --- | --- |
| CC(NS(N)(=O)=O)c1ccc(OCc2ccc(F)cc2)cc1 (configuration not stated) | -0.493 |
| c1cnn(CC2CCCN2c2ncnc3sccc23)c1 (configuration not stated) | 31.2 |
| CS(=O)(=O)N1CCOCC2(CCN(Cc3ccc[nH]3)CC2)C1 | -5.4 |
| CCc1[nH]c2c(CNC(=O)C3CCC(=O)NC3)cc(C)cc2c1C (configuration not stated) | -9.39 |
| CCCn1[nH]cc/c1=N\C(=O)CN1CCCC1c1c(C)nn(C)c1C (configuration not stated) | 16.9 |
| C[C@H]1C[C@@H]2CCN(Cc3nccs3)C[C@H]2O1 | -9.2 |
| c1ccc2c(OCCN3CCn4c(nnc4C4CC4)C3)cccc2c1 | 2.06 |
| COc1ccc(C[C@H]2CN(c3cc(OC)ncn3)CC[C@H]2OC)cc1 | 11.6 |
| Cc1ccc(C)c2c(C)c(C(=O)NCC[S+](C)[O-])[nH]c12 (configuration not stated) | -4.15 |
| COC(=O)C1CCN(C(=O)Nc2cc(-n3cccc3)ccc2F)CC1 | -6.77 |
| Cc1cn2cc(-c3nc4c([nH]3)CCCNC4=O)nc2s1 | -10.3 |
| CCOCCNC(=O)c1cccnc1Sc1cc(OC)ccc1OC | 15.5 |
| CC(=O)NCC(=O)N1CCC2(COCc3c(C)nc(N(C)C)nc32)C1 (configuration not stated) | -6.64 |
| c1ccc(N2CCC3(COCCN(Cc4cccs4)C3)C2)nc1 (configuration not stated) | -4.82 |
| CCN(CC)CCNCC1CCOC(C)(C)C1 (configuration not stated) | -5.74 |
| CCn1cc2c(n1)C(COC)CN(C(=O)c1ccccn1)C2 (configuration not stated) | -9.71 |
| Cc1oc(C)c(C(=O)NCc2ccccc2S(=O)(=O)N(C)C)c1C | -2.12 |
| CC(C(=O)N1CCCC1)N1CCN(c2ncc(Cl)cn2)CC1 (configuration not stated) | -3.08 |
| CN(C)CC1CSCCCN1C(=O)c1ccc(-c2ccccc2)cc1 (configuration not stated) | -0.605 |
| CCn1ncc(Br)c1CN(C)S(=O)(=O)c1ccc(C)cc1 | 8.37 |
| COc1ccc(C(=O)Nc2ccccc2C(C)C)c(OC)n1 | 5.28 |
| Cc1ccc(CNC(C)c2ccc(N3CCN(C)CC3)c(F)c2)o1 (configuration not stated) | 0.0517 |
| CC(=O)NCCNc1cc(C)nc2cc(C)nn12 | 0.136 |

| SMILES | cytotoxicity at 70.5 h [%] |
| --- | --- |
| CN(C)CC(=O)N1CCCCC1c1nc(N)ncc1-c1ccccc1 (configuration not stated) | 5.62 |
| Cc1noc(C)c1CN(C)c1nccc(C(F)(F)F)n1 | 4.31 |
| CC(Cn1cccn1)C(=O)N1CCCN(Cc2cscn2)CC1 (configuration not stated) | -0.68 |
| CC(C)(C)C(=O)NCCC(=O)NCCc1ccn(-c2ccccc2)n1 | -4.33 |
| Cc1cc2c(N)nc(=O)n(CC(=O)Nc3cccc(Cl)c3)c2s1 | -13.3 |
| CC(CCc1ccccc1F)C(=O)NS(=O)(=O)N(C)C(C)C (configuration not stated) | -12.3 |
| COC(=O)NCC(=O)N(C)CC1Cc2ccccc2CN1C (configuration not stated) | -2.82 |
| Cc1cccc(C(=O)NCc2ccnc(N(C)C)c2)n1 | 0.0987 |
| CC(C)C1CCN(C(=O)NCC(=O)N(C)CC(F)(F)F)CC1 | 20.8 |
| Cc1cccc(C)c1OCCNC(=O)CN1CCN(C)CC1C (configuration not stated) | 16.7 |
| CCS(=O)(=O)N1CCC2(CCN(Cc3ccc(C)o3)C2)C1 (configuration not stated) | 13 |
| COc1cccc(CNC2CCc3ccc(C)cc32)n1 (configuration not stated) | -9.15 |
| NC(=O)C1CCN(Cn2nc(-c3ccccc3)oc2=O)CC1 | -8.01 |
| CN1CCC(N(C)C[C@H]2CC[C@@H](Cc3ccc4occc4c3)O2)CC1 | 3.05 |
| COCCC(=O)N1CCOCC(Cc2ccc3c(ccn3C)c2)C1 (configuration not stated) | -6.26 |
| C[C@H](c1ccc(Cl)cc1)n1c(C2CC2)n[nH]c1=O | -3.55 |
| CC[C@H](C)[C@H](NC(=O)Cn1ccc2ccc(F)cc21)C(=O)OC | -1.27 |
| Cc1ccc(CN2CCN(c3ncnc4[nH]cnc34)CC2CCO)cc1 (configuration not stated) | 4.25 |
| O=C(Nc1nc2c(s1)CN(S(=O)(=O)C1CC1)CC2)C1CC1 | 27 |
| CC(C)N1CCCC1c1nc(N(C)C)ncc1I (configuration not stated) | -4.13 |
| CCC1CCCCN1S(=O)(=O)c1c(C)noc1C (configuration not stated) | -7.69 |
| CCCS(=O)(=O)c1ccc(N2CCN(c3ccccn3)CC2)nn1 | 2.28 |
| COc1cccc(NC(=O)Cn2c(=O)nc(N)c3cc(C)sc32)c1 | -17.3 |

| SMILES | cytotoxicity at 70.5 h [%] |
| --- | --- |
| Cc1cnn(CC(C)NCc2ccncc2)c1 (configuration not stated) | 0.737 |
| O=C(c1cnccn1)N1CCC2(CCN(Cc3ccsc3)C2)CC1 | -5.07 |
| CC(=O)c1c(O)ccnc1C(F)(F)F | -3.79 |
| COc1ccc(CN2CCO[C@H]3CN(C(=O)C4CC4)CC[C@H]3C2=O)cc1 | -12 |
| CC(C)(C#N)C(=O)N1CCCC(c2cc(C(F)(F)F)[nH]n2)C1 (configuration not stated) | -0.389 |
| CC1(CNS(=O)(=O)c2cccc(C(=O)N3CCSCC3)c2)COC1 | -6.9 |
| CN(C)C(=O)[C@H]1CC[C@@H]2[C@@H](CCN2Cc2ccccn2)O1 | 0.127 |
| O=C(c1cc(-c2ccccc2)nc2onc(C3CC3)c12)N1CC[C@H](O)C1 | -11.3 |
| CN(Cc1cncnc1)[C@H]1CN(C(=O)c2ccco2)[C@@H]2CCCO[C@@H]21 | -10.9 |
| CCOc1ccccc1NC(=O)NCC(C)(O)CCSC (configuration not stated) | -3.88 |
| COCCN1CCC2(CC1)CC(NC(=O)CC1CC1)c1ccccc1O2 (configuration not stated) | -6.99 |
| CCCN1CCN(C(=O)Cc2cccnc2)[C@H]2CS(=O)(=O)C[C@H]21 | 11.9 |
| COCc1c(C(=O)N2CCCC(N(C)Cc3ccccc3)C2)noc1C (configuration not stated) | -3.62 |
| Cc1cc(CN(C)CCC(O)c2ccccc2)no1 (configuration not stated) | 1.83 |
| CC(C)n1cc(N2CC(C(=O)N3CCc4ccccc4C3)CC2=O)cn1 (configuration not stated) | 26.3 |
| CN(Cc1cc2n(n1)CCNC2)Cc1cc(-c2ccccn2)no1 | -5.4 |
| CC(=O)N1CCOC2(CCN(C(=O)C3CC3)CC2)C1 | -10.3 |
| Cc1cccc(OC2CCN(C(=O)Cn3ccc4ccccc43)CC2)n1 | -6.3 |
| Cc1nn(-c2ccc(C(=O)O)cc2)c2c1C(C(C)C)SCC(=O)N2 (configuration not stated) | -2.14 |
| N#Cc1ccc(C(=O)N2CCn3c(Cn4cccn4)cnc3C2)cc1 | 7.14 |
| COc1cc2nc(NCc3scnc3C)nc(N)c2cc1OC | 8.57 |
| Cc1nc(CNC(=O)CCN2CCN(c3ccccc3)CC2)oc1C | 2.07 |
| CC(C)NC(=O)N1C[C@@H](F)[C@@H](OCc2nc3ccccc3o2)C1 | -0.085 |

| SMILES | cytotoxicity at 70.5 h [%] |
| --- | --- |
| Cc1cc(C)n(CC2CN(CC(=O)NCc3ccccn3)CCO2)n1 (configuration not stated) | -2.74 |
| CC(C)(NC(=O)NCc1cccc(Br)c1)C(=O)O | -9.51 |
| Cc1cc(OCc2cccc(F)c2)ccc1NC(=O)C(C)NC(N)=O (configuration not stated) | 5.5 |
| COc1ncccc1NC(=O)N(Cc1ccccn1)C1CC1 | -17.7 |
| CCc1nc(CN(C)c2nccc(N3CCCC(O)C3)n2)no1 (configuration not stated) | -0.51 |
| Cc1cnn(CCC(=O)N2CCCC(c3nc(C)no3)C2)c1 (configuration not stated) | 37.7 |
| Cc1cnn(CC(C)NCc2ccc(C#N)cc2F)c1 (configuration not stated) | -4.59 |
| CCCc1nn(Cc2csc(CC)n2)c(=O)o1 | -4.3 |
| O=C(Nc1cnccn1)[C@H]1CC[C@@H]2[C@@H](CCN2Cc2ccoc2)O1 | 25.7 |
| Cc1nn(C)c(C)c1CNC1CCOc2ccccc21 (configuration not stated) | -8.58 |
| CN(C)CCOc1ccccc1N1CCN(C(=O)c2ccoc2)CC1 | 2.2 |
| Cc1occc1C(=O)N1CCC2(CCC(=O)N(CC(N)=O)C2)CC1 | -2.77 |
| c1ccc(-c2cccc(-c3ccn(CCN4CCCCC4)n3)c2)nc1 | 13.3 |
| Cc1cc(NC(=O)CN2CCCC2Cn2nc(C)nc2C)n(C)n1 (configuration not stated) | -14.8 |
| COc1cc(OC)cc(C(=O)NCCCNc2ncccn2)c1 | -7.17 |
| O=C(Nc1ccccc1Cn1cccn1)N1CCC(N2CCCC2)C1 (configuration not stated) | -2.57 |
| CN1CCC(N[C@@H]2CO[C@H](CNC(=O)C3CCCC3)[C@H]2O)CC1 | -3.54 |
| Cc1nc(C(=O)N2CCC(c3nnc(Cn4ccnc4)n3C)CC2)cs1 | -8.64 |
| Cc1cc(CN(C)Cc2csc(-c3cccs3)n2)n[nH]1 | -1.87 |
| CN(CCc1nc2cc(Cl)ccc2[nH]1)C(=O)c1ncn[nH]1 | -9.76 |
